Assays:
Assay in all cases: Enzyme Assay and Determination of the Inhibition Constants
Prothrombin = Prothrombin (Homo sapiens, UniProt P00734)
Method: (§1) Each enzyme was assayed with a set of different concentrations of each inhibitor. […] Ki(apparent) values were calculated from enzyme velocity curves using the software package BatchKi (BioKin Ltd, Madison, WI). These apparent inhibition constants were then converted to Ki values by assuming competitive inhibition and using the formula Ki = Ki(apparent)/(1 + S/Km).

Serine protease 1 [1] = molecular target: T1, Serine protease 1 (Bos taurus, UniProt P00760)
T1 sequence (P00760 whole entry): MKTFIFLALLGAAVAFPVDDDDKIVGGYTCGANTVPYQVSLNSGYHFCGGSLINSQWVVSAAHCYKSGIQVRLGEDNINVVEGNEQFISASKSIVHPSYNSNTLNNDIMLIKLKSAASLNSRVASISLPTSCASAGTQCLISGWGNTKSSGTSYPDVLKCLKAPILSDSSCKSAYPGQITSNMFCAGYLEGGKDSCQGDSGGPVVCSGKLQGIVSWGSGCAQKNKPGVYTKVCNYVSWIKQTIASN
Method: as §1

[2] = molecular target: Urokinase-type plasminogen activator (Homo sapiens, UniProt P00749)
Method: as §1

Coagulation factor X = Coagulation factor X (Homo sapiens, UniProt P00742)
Method: as §1

Serine protease 1 [3] = molecular target: Serine protease 1 (Homo sapiens, UniProt P07477)
Sequence of Serine protease 1 (Homo sapiens, UniProt P07477) (P07477 whole entry): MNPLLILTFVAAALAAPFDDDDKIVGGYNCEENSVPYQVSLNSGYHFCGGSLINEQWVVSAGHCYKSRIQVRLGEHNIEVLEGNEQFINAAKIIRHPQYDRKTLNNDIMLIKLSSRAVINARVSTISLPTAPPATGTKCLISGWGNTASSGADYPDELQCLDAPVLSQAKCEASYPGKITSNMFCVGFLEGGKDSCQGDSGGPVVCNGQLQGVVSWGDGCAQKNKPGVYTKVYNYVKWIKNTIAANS
Method: as §1

Sequence of Coagulation factor X (P00742 41-179 limits assumed): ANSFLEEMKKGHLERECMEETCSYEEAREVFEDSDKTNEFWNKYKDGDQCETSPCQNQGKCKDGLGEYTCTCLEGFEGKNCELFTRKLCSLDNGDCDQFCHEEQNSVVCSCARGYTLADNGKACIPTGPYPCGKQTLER
Sequence of Coagulation factor X (P00742 235-488 limits assumed): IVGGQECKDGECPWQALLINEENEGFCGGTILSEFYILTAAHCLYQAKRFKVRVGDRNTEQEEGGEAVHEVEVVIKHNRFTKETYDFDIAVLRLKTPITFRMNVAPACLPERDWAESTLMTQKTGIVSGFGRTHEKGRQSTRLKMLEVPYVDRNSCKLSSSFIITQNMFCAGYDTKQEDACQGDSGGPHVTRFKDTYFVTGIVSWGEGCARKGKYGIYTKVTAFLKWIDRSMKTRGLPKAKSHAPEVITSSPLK

Row | Structure (SMILES) | Ki (Prothrombin) | Ki (Serine protease 1 [1]; pH 8.04, 22 °C) | Ki [2] | Ki (Coagulation factor X) | Ki (Serine protease 1 [3]) | Ki (Serine protease 1 [1]) | Ki (Serine protease 1 [1]; pH 7.5, 22 °C) | Ki (Serine protease 1 [1]; pH 6.1, 22 °C) | Ki (Serine protease 1 [1]; pH 7.6, 22 °C)
1 | N=C(N)c1ccc2[nH]c(-c3ccccc3O)cc2c1 [2-{5-[amino(iminiumyl)methyl]-1H-indol-2-yl}benzen-1-olate] | 12 µM | 600 nM | 2900 nM | 2400 nM | 4900 nM | – | – | – | –
2 | N=C(N)c1ccc2[nH]c(-c3cc(Cl)cc(-c4ccccc4)c3O)cc2c1 [2-{5-[amino(iminiumyl)methyl]-1H-indol-2-yl}-4-chloro-6-phenylbenzen-1-olate] | 1 µM | – | 590 nM | 250 nM | 540 nM | 13 nM | – | – | –
3 | N=C(N)c1cc2nc(-c3cccc(-c4ccccc4)c3O)[nH]c2cc1F [2-{5-[amino(iminiumyl)methyl]-6-fluoro-1H-1,3-benzodiazol-2-yl}-6-phenylbenzen-1-olate] | – | – | 280 nM | – | 12000 nM | – | 230 nM | – | –
4 | N=C(N)c1ccc2nc(-c3cc([C@@H](CC(=O)O)C(=O)O)cc(-c4ccccc4)c3O)[nH]c2c1 [(2R)-2-(3-{5-[amino(iminiumyl)methyl]-1H-1,3-benzodiazol-2-yl}-4-oxido-5-phenylphenyl)butanedioate] | 160 µM | – | 120 nM | 1200 nM | 3700 nM | 290 nM | – | – | –
5 | N=C(N)c1ccc2[nH]c(-c3cc([C@@H](CC(=O)O)C(=O)O)cc(Br)c3O)cc2c1 [(2R)-2-(3-{5-[amino(iminiumyl)methyl]-1H-indol-2-yl}-5-bromo-4-oxidophenyl)butanedioate] | 1.7 µM | – | – | 48 nM | 1700 nM | 240 nM | – | – | –
6 | N=C(N)c1ccc2nc(-c3cc([N+](=O)[O-])ccc3O)[nH]c2c1 [2-{5-[amino(iminiumyl)methyl]-1H-1,3-benzodiazol-2-yl}-4-nitrobenzen-1-olate] | 23 µM | – | 5100 nM | 7300 nM | – | – | – | 470 nM | –
7 | Cc1cc(-c2ccccc2)c(O)c(-c2cc3cc(C(=N)N)ccc3[nH]2)c1 [2-{5-[amino(iminiumyl)methyl]-1H-indol-2-yl}-4-methyl-6-phenylbenzen-1-olate] | – | – | 340 nM | 180 nM | 380 nM | – | – | – | 15 nM
